From publication PMC3586729 (Nature Communications, 2013)

Biological target: T1, F. pringlei R884G mutant C3 PEPC (Flaveria pringlei, UniProt Q01647, R885G)
T1 sequence (Q01647 1-967 R885G): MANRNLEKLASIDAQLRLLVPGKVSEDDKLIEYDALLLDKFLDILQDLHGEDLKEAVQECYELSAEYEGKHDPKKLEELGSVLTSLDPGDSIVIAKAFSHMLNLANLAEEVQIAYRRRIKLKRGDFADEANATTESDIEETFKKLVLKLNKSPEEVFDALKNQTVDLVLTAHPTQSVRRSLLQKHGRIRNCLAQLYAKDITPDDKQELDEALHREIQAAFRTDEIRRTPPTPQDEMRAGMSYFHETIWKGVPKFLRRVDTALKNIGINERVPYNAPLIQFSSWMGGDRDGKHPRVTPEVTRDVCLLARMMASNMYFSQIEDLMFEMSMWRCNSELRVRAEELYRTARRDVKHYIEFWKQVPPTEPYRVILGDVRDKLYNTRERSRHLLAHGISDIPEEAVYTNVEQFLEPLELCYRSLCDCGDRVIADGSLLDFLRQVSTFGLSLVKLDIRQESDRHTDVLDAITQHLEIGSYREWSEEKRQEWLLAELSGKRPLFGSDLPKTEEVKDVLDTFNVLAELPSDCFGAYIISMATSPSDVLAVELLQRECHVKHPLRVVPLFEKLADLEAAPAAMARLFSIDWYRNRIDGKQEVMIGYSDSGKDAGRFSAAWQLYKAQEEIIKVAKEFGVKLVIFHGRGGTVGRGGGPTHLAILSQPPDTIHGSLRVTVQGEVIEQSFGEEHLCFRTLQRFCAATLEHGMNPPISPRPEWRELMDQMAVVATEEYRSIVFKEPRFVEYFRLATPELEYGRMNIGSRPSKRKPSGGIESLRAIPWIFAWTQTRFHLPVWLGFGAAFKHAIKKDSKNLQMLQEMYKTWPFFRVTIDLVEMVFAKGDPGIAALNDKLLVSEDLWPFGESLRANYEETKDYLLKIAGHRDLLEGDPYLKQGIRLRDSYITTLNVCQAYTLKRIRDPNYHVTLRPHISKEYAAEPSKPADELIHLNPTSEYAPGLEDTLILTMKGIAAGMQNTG
Format: biochemical
Settings: C3 PEPC R884G versus wild-type C3 PEPC from F. pringlei

O=C(O)CC(O)C(=O)O (stereo not shown) [malate]
malate tolerance of the engineered enzyme increased by a factor: ~ 3
